Target: benzodiazepine site of the GABAA receptor
Assay: Ligand binding assay of Example 6 (3H-Ro15-1788 competition, purified rat cortical membranes)
Conditions: for Ki: ligand binding assay of Example 6, Table 5 Ki

| Ki [nM] | SMILES | Kd (radioligand, previously determined, used in Cheng-Prusoff equation, read-out: Kd, binding dissociation constant of 3H-Ro15-1788) [nM] |
| --- | --- | --- |
| < 1000 | Cc1nc2c(CCOCc3ccccc3)c(Cn3ccnc3-c3ncccc3F)ncn2n1 [Compound 227, 8-(2-Benzyloxy-ethyl)-7-[2-(3-fluoro-pyridin-2-yl)-imidazol-1-ylmethyl]-2-methyl-[1,2,4]triazolo[1,5-c]pyrimidine] | – |
| < 1000 | CCCc1c(Cn2ccnc2-c2ncccc2F)ncn2nc(COC3CCCC3)nc12 [Compound 265, 2-[(cyclopentyloxy)methyl]-7-{[2-(3-fluoropyridin-2-yl)-1H-imidazol-1-yl]methyl}-8-propyl[1,2,4]triazolo[1,5-c]pyrimidine] | – |
| < 1000 | FCCCc1c(Cn2ccnc2-c2ncccc2F)ncn2ncnc12 [Compound 233, 8-(3-Fluoro-propyl)-7-[2-(3-fluoro-pyridin-2-yl)-imidazol-1-ylmethyl]-[1,2,4]triazolo[1,5-c]pyrimidine] | – |
| < 1000 | CCCc1c(Cn2ccnc2-c2cccc(C#N)n2)ncn2nc(COC)nc12 [Compound 253, 6-(1-{[2-(methoxymethyl)-8-propyl[1,2,4]triazolo[1,5-c]pyrimidin-7-yl]methyl}-1H-imidazol-2-yl)pyridine-2-carbonitrile] | – |
| < 1000 | CCCc1c(Cn2ccnc2-c2ncccc2F)ncn2nc(CO)nc12 [Compound 223, {7-[2-(3-Fluoro-pyridin-2-yl)-imidazol-1-ylmethyl]-8-propyl-[1,2,4]triazolo[1,5-c]pyrimidin-2-yl}-methanol] | – |

The next lines start with the molecule.

| SMILES | Ki [nM] | Kd (radioligand, previously determined, used in Cheng-Prusoff equation, read-out: Kd, binding dissociation constant of 3H-Ro15-1788) [nM] |
| --- | --- | --- |
| CCCc1c(Cn2ccnc2-c2ncccc2F)ncn2nc(-c3cccnc3)nc12 [Compound 225, 7-[2-(3-Fluoro-pyridin-2-yl)-imidazol-1-ylmethyl]-8-propyl-2-pyridin-3-yl-[1,2,4]triazolo[1,5-c]pyrimidine] | < 1000 | – |
| CCCc1c(Cn2ccnc2-c2cccc(F)n2)nc(C)n2nc(CC)nc12 [Compound 218, 2-Ethyl-7-[2-(6-fluoro-pyridin-2-yl)-imidazol-1-ylmethyl]-5-methyl-8-propyl-[1,2,4]triazolo[1,5-c]pyrimidine] | < 1000 | – |
| CCCc1c(Cn2ccnc2-c2cccc(C#N)n2)ncn2nc(C)nc12 [Compound 262, 6-{1-[(2-methyl-8-propyl[1,2,4]triazolo[1,5-c]pyrimidin-7-yl]methyl]-1H-imidazol-2-yl}pyridine-2-carbonitrile] | < 1000 | – |
| Cc1nc2c(CCCOCc3ccccc3)c(Cn3ccnc3-c3ncccc3F)ncn2n1 [Compound 226, 8-(3-Benzyloxy-propyl)-7-[2-(3-fluoro-pyridin-2-yl)-imidazol-1-ylmethyl]-2-methyl[1,2,4]triazolo[1,5-c]pyrimidine] | < 1000 | – |
| CCCc1c(Cn2ccnc2-c2ncccc2F)ncn2nc(C(N)=O)nc12 [Compound 239, 7-[2-(3-Fluoro-pyridin-2-yl)-imidazol-1-ylmethyl]-8-propyl-[1,2,4]triazolo[1,5-c]pyrimidine-2-carboxylic acidamide] | < 1000 | – |
| CCC(O)c1c(Cn2ccnc2-c2ncccc2F)ncn2nc(C)nc12 (stereo not shown) [Compound 222, 1-{7-[2-(3-Fluoro-pyridin-2-yl)-imidazol-1-ylmethyl]-2-methyl-[1,2,4]triazolo[1,5-c]pyrimidin-8-yl}-propan-1-ol] | < 1000 | – |
| Cc1nc2c(CCF)c(Cn3ccnc3-c3ncccc3F)ncn2n1 [Compound 229, 8-(2-Fluoro-ethyl)-7-[2-(3-fluoro-pyridin-2-yl)-imidazol-1-ylmethyl]-2-methyl-[1,2,4]triazolo[1,5-c]pyrimidine] | < 1000 | – |
| CCOC(=O)c1ncn2c1CN(C)C(=O)c1cc(F)ccc1-2 [^3H-Ro15-1788, reference compound] | – | 1 |

From patent US7271170B2, “Imidazo-pyrimidines and triazolo-pyrimidines: benzodiazepine receptor ligands” (Neurogen Corporation, priority 2003, dated 2007)
